Laboratory results reported in ChEMBL document CHEMBL2424638, “6-Bromo-8-(4-[(3)H]methoxybenzamido)-4-oxo-4H-chromene-2-carboxylic Acid: a powerful tool for studying orphan G protein-coupled receptor GPR35” (J Med Chem, 2013).

Key:
[1] = biological target: T1, G-protein coupled receptor 35 (Homo sapiens, UniProt Q9HC97); assay: Agonist activity at C-terminal beta-galactosidase tagged human recombinant GPR35 expressed in CHO cells at 100 uM after 90 mins by beta-arrestin recruitment assay relative to zaprinast; type: cell-based
T1 sequence (Q9HC97 whole entry): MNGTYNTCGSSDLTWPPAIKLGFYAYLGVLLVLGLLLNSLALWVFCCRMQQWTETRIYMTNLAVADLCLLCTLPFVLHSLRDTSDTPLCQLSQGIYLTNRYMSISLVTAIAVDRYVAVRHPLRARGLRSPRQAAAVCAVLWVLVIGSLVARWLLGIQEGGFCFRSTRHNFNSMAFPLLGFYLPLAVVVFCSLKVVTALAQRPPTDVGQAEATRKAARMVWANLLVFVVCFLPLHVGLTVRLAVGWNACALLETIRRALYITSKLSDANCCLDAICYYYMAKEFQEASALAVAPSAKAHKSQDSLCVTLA

[2] = biological target: T1, G-protein coupled receptor 35; assay: Agonist activity at C-terminal beta-galactosidase tagged human recombinant GPR35 expressed in CHO cells after 90 mins by beta-arrestin recruitment assay; type: cell-based
[3] = biological target: T1, G-protein coupled receptor 35; assay: biochemical; type: cell-based, CHO
Description: Displacement of [3H]PSB-13253 from human recombinant GPR35 exprssed in CHO cells by liquid scintillation counting analysis

[4] = biological target: T1, G-protein coupled receptor 35; assay: Agonist activity at human GPR35 expressed in CHO cells assessed as increase in intracellular Ca2+ measured over 20 secs by Aequorin assay; type: functional, cell-based
[5] = biological target: T1, G-protein coupled receptor 35; conditions: CHO, 5 nM
[6] = biological target: T1, G-protein coupled receptor 35; conditions: CHO, 5 nM; remark: listed apart in the source
[7] = biological target: T1, G-protein coupled receptor 35; conditions: CHO, 5 nM; remark: listed apart in the source
[8] = biological target: T1, G-protein coupled receptor 35; conditions: CHO, 5 nM; remark: listed apart in the source
[9] = biological target: T1, G-protein coupled receptor 35; conditions: CHO, 5 nM; remark: listed apart in the source
[10] = biological target: T1, G-protein coupled receptor 35; assay: Agonist activity at human GPR35 by Ca+2 release assay
[11] = biological target: T1, G-protein coupled receptor 35; assay: Agonist activity at human GPR35 by DMR assay
[12] = biological target: T1, G-protein coupled receptor 35; assay: Displacement of [3H]PSB-13253 from human recombinant GPR35 exprssed in CHO cells at 10 uM by liquid scintillation counting analysis; type: cell-based
[13] = biological target: T1, G-protein coupled receptor 35; assay: Binding affinity to human recombinant GPR35 expressed in CHO cells after 150 mins by liquid scintillation counting analysis
[14] = biological target: T1, G-protein coupled receptor 35; assay: Competitive binding affinity to human recombinant GPR35 expressed in CHO cells by scintillation counting analysis in presence of CaCl2; type: cell-based
[15] = biological target: T1, G-protein coupled receptor 35; assay: Competitive binding affinity to human recombinant GPR35 expressed in CHO cells by scintillation counting analysis in presence of MgCl2; type: cell-based
[16] = biological target: T1, G-protein coupled receptor 35; assay: Binding affinity to human recombinant GPR35 expressed in CHO cells by scintillation counting analysis in absence of MgCl2, NaCl, CaCl2; type: cell-based
[17] = biological target: T1, G-protein coupled receptor 35; assay: Antagonist activity at human GPR35 expressed in human HT29 cells after 1 hr by DMR assay; type: cell-based; conditions: ht-29
[18] = biological target: T1, G-protein coupled receptor 35; assay: Antagonist activity at human Gal4-VP16 fused GPR35 expressed in human U2OS cells assessed as beta arrestin translocation by reporter gene assay; type: cell-based
[19] = biological target: T1, G-protein coupled receptor 35; assay: Antagonist activity at C-terminal beta-galactosidase tagged human recombinant GPR35 expressed in CHO cells after 90 mins by beta-arrestin recruitment assay; type: cell-based
[20] = biological target: T1, G-protein coupled receptor 35; assay: Agonist activity at human GPR35 expressed in HEK293T cells at 5 uM by EYPF-based beta-arrestin-2 luciferase reporter gene assay; type: cell-based, HEK-293T

SMILES	Ki [3]	also measured
COc1cc(F)c(C(=O)Nc2cc(Br)cc3c(=O)cc(C(=O)O)oc23)c(F)c1	0.589 nM	Emax [1]: 119%; EC50 [2]: 5.54 nM
O=C(O)c1cc2ccccc2c(Cc2c(O)c(C(=O)O)cc3ccccc23)c1O	–	Emax [1]: 95%
COc1ccccc1C(=O)Nc1cc(Br)cc2c(=O)cc(C(=O)O)oc12	331 nM	–
O=C(O)c1cc(=O)c2ccccc2[nH]1 [TRANSTORINE]	137000 nM	EC50 [4]: 39200 nM
COc1ccc(C(=O)Nc2cc(Br)cc3c(=O)cc(C(=O)O)oc23)c(Cl)c1	1.12 nM	–
COc1ccc(C(=O)Nc2cc(Cl)cc3c(=O)cc(C(=O)O)oc23)cc1	5.5 nM	–
CC1=C(C#N)C(=C(C#N)C#N)OC1(C)c1ccc(Cl)c(Cl)c1 (stereo unspecified)	655 nM	–
Cc1cccc(C(=O)Nc2cccc3c(=O)cc(C(=O)O)oc23)c1	4780 nM	–
O=C(Nc1cccc2c(=O)cc(C(=O)O)oc12)c1ccc(OCC2CC2)cc1	3710 nM	–
O=C(Nc1cccc2c(=O)cc(C(=O)O)oc12)c1ccc(C(F)(F)F)cc1	10300 nM	–
O=C(Nc1cc(Br)cc2c(=O)cc(C(=O)O)oc12)c1ccccc1	81.6 nM	–
CCCOc1ccc(C(=O)Nc2cccc3c(=O)cc(C(=O)O)oc23)cc1	8060 nM	–
CCC(=O)Nc1cccc2c(=O)cc(C(=O)O)oc12	6770 nM	–
Cc1cccc(C(=O)Nc2cc(Br)cc3c(=O)cc(C(=O)O)oc23)c1	128 nM	–
COc1ccc(C(=O)Nc2cc(Br)cc3c(=O)cc(C(=O)O)oc23)nc1	56.8 nM	–
COc1ccc(C(=O)Nc2cc(Br)cc3c(=O)cc(C(=O)O)oc23)cc1	5.18 nM	inhibition [5]: 85%; inhibition [6]: 90%; inhibition [7]: 65%; T1/2 [8]: 7.8 min; T1/2 [9]: 9.91 min
O=C(Nc1cc(Br)cc2c(=O)cc(C(=O)O)oc12)c1ccc(Cl)cc1	4.79 nM	–
O=C(O)c1cc(=O)c2cccc([N+](=O)[O-])c2o1	13600 nM	–
O=C(Nc1cc(Br)cc2c(=O)cc(C(=O)O)oc12)c1ccc(Cl)c(Cl)c1	2.18 nM	EC50 [2]: 25.1 nM

SMILES	Ki [3]	also measured
Cc1ccc(C(=O)Nc2cccc3c(=O)cc(C(=O)O)oc23)cc1	697 nM	–
CCOC(=O)c1cc(=O)c2cc(F)cc(NC(=O)c3ccc(OC)cc3)c2o1	198 nM	–
O=C(Nc1cc(Br)cc2c(=O)cc(C(=O)O)oc12)c1ccc2c(c1)OCO2	15 nM	–
COc1ccc(C(=O)Nc2cc(OC)cc3c(=O)cc(C(=O)O)oc23)cc1	20.5 nM	Emax [1]: 124%; EC50 [2]: 25.5 nM
NS(=O)(=O)c1cc(C(=O)O)c(NCc2ccco2)cc1Cl	–	Emax [1]: 96%
COc1ccc(C(=O)Nc2cc(Br)cc3c(=O)cc(C(=O)O)oc23)cn1	25.7 nM	–
O=C(Cc1ccccc1)Nc1cccc2c(=O)cc(C(=O)O)oc12	2720 nM	–
COc1ccc(C(=O)Nc2cc(Br)cc3c(=O)cc(C(=O)O)oc23)cc1F	1.64 nM	Emax [1]: 120%; EC50 [2]: 4.37 nM
COC(=O)CC(=O)Nc1cccc2c(=O)cc(C(=O)O)oc12	18600 nM	–
CCOc1ccc(C(=O)Nc2cc(Br)cc3c(=O)cc(C(=O)O)oc23)cc1	98.4 nM	–
O=C(Nc1cc(Cl)cc2c(=O)cc(C(=O)O)oc12)c1ccc([N+](=O)[O-])cc1	183 nM	–
O=C(O)c1cc(=O)c2c(OCC(O)COc3cccc4oc(C(=O)O)cc(=O)c34)cccc2o1 [CROMOLYN]	2340 nM	EC50 [10]: 210 nM; EC50 [11]: 520 nM; Emax [1]: 119%
O=C(O)c1cc(=O)c2cc(F)cc(NC(=O)c3cccc(Cl)c3Cl)c2o1	119 nM	–
N#Cc1ccc(C(=O)Nc2cc(Br)cc3c(=O)cc(C(=O)O)oc23)cc1	148 nM	–
Nc1cccc2c(=O)cc(C(=O)O)oc12	–	inhibition [12]: 7%
COc1ccc(C(=O)Nc2cc(F)cc3c(=O)cc(C(=O)O)oc23)cc1	25.4 nM	–
O=C(Nc1cccc2c(=O)cc(C(=O)O)oc12)c1ccccc1	3290 nM	–
COc1ccc(C(=O)Nc2cc(C)cc3c(=O)cc(C(=O)O)oc23)cc1	42.8 nM	Emax [1]: 118%; EC50 [2]: 37.7 nM
O=C(O)c1cc(=O)c2cc(Br)cc(NC(=O)c3ccc(Cl)cc3Cl)c2o1	0.938 nM	–

SMILES	Ki [3]	also measured
Cc1cccc(C(=O)Nc2cc(Cl)cc3c(=O)cc(C(=O)O)oc23)c1	250 nM	–
O=C(Nc1cc(F)cc2c(=O)cc(C(=O)O)oc12)c1ccc(Cl)c(Cl)c1	11.5 nM	–
[3H]C([3H])([3H])Oc1ccc(C(=O)Nc2cc(Br)cc3c(=O)cc(C(=O)O)oc23)cc1	–	Kd [13]: 5.27 nM; Kd [14]: 5.92 nM; Kd [15]: 5.65 nM; Kd [16]: 115 nM
COC(=O)c1cnn(-c2ccc(F)cc2F)c1/C=N/NC(=S)NC(C)(C)C	42.2 nM	IC50 [17]: 10400 nM; IC50 [18]: 200 nM; IC50 [19]: 574 nM
O=C(O)c1cc(=O)c2cccc(NC(=O)C3CCCCC3)c2o1	3580 nM	–
O=C(O)c1cc(=O)c2cc(F)cc(NC(=O)c3ccc(Cl)cc3Cl)c2o1	4.12 nM	–
O=C(Nc1cccc2c(=O)cc(C(=O)O)oc12)c1ccc2ccccc2n1	691 nM	–
COc1ccc(C(=O)Nc2cc(Br)cc3c(=O)cc(C(=O)O)oc23)cc1OC	228 nM	–
COc1ccc(C(=O)Nc2cccc3c(=O)cc(C(=O)O)oc23)cc1	221 nM	–
CC(=O)Nc1cccc2c(=O)cc(C(=O)O)oc12	18500 nM	–
O=C(O)COc1ccc(/C=C2\SC(=O)NC2=O)cc1	50.8 nM	EC50 [20]: 1400 nM; Emax [1]: 107%; EC50 [2]: 349 nM
O=C(Nc1cccc2c(=O)cc(C(=O)O)oc12)c1ccc2ccccc2c1	714 nM	–
Nc1cc(Br)cc2c(=O)cc(C(=O)O)oc12	3010 nM	–
O=c1oc2ccccc2c(O)c1Cc1c(O)c2ccccc2oc1=O [DICUMAROL]	39 nM	EC50 [20]: 1300 nM; Emax [1]: 107%; EC50 [2]: 9780 nM
O=C(Nc1cc(Cl)cc2c(=O)cc(C(=O)O)oc12)c1ccccc1	138 nM	–
O=C(Nc1cccc2c(=O)cc(C(=O)O)oc12)c1cccc([N+](=O)[O-])c1	4390 nM	–
O=C(Nc1cccc2c(=O)cc(C(=O)O)oc12)c1ccc(Br)cc1	233 nM	–
COc1ccc(C(=O)Nc2cc(Br)cc3c(=O)cc(C(=O)O)oc23)c(F)c1	1.37 nM	Emax [1]: 120%; EC50 [2]: 4.45 nM
COc1ccc(C(=O)Nc2cc(Cl)cc3c(=O)cc(C(=O)O)oc23)c(F)c1	1.92 nM	Emax [1]: 111%; EC50 [2]: 6.06 nM
